Measured values taken from PubChem BioAssay (NCI).
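Cultured in 96-well plates, cells were exposed to test compound for 48 hours across five concentrations. TGI marks complete inhibition of growth.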

Each molecule was assayed on COLO 205 colon (assay: NCI-60 cell line screen, 48 h).

SMILES | TGI
C[n+]1cc2cc(O)c(O)cc2c2ccc3cc(O)c(O)cc3c21 | > 84.5 µM
COc1ccc(N=Nc2c(-c3c(OC)cc4occc4c3OC)[nH]c(=O)c(C#N)c2C)cc1 | > 100 µM
O=C(/C=C/c1ccc(Cl)cc1)Oc1ccc(C=C2CCC/C(=C\c3ccc(OC(=O)/C=C/c4ccc(Cl)cc4)cc3)C2=O)cc1 | > 100 µM
COc1ccc2c(c1)c1c(n2CCN2CCCCC2)-c2cccc(OC)c2CC1 | 39 µM
COc1ccc2nc(NC(=O)/C(C#N)=C/c3ccccc3)sc2c1 | > 100 µM
Cc1c(C)n(-c2ccccc2)c2nc(S(C)=O)nc(S(C)=O)c12 (configuration not stated) | 3.41 µM
CC1(C)CC(=O)C2=C(C1)C(c1ccccc1Cl)C1C(=O)CC(C)(C)CC1(O)O2 (configuration not stated) | > 31.6 µM
Cn1nc(-c2ccc(S(=O)(=O)/N=C(\NN)Nc3ccc(Cl)cc3)s2)cc1C(F)(F)F | 37.6 µM
Cc1ccc2c(c1C)C(=O)C1(Cc3cc4c(cc3C1=O)CCC4)C2 (configuration not stated) | > 100 µM
CCCCI(O)OS(=O)(=O)c1ccc(C)cc1 | > 100 µM
C[C@@H]1CC[C@@]2(C)C(C(=O)O)=CCCC2[C@@]1(C)CC(=O)c1ccoc1 (some centres not stated) | > 25 µM
O=C(CCc1cc(O)cc(O)c1)NCCc1cc(OCc2ccccc2)cc(OCc2ccccc2)c1 | 44.3 µM
Clc1cccc(-c2sc(-c3cccs3)cc2Cc2cccs2)c1 | > 10 µM
c1ccc(C2=NC3OC2c2ccccc23)cc1 (configuration not stated) | > 10 µM
CCOC(=O)CSc1nc(N)c2c(-c3ccccc3)c3c(nc2n1)CCCC3 | > 100 µM
COC(=O)/C=C(/C=C1/C(C#N)=C(N)N(c2ccc(Cl)cc2)C1(C)/C(=C\C(=O)OC)C(=O)OC)C(=O)OC (configuration not stated) | 29.8 µM
O=c1c2c3c(sc2[nH]c(=S)n1-c1ccccc1)CCCc1ccc([N+](=O)[O-])cc1-3 | > 100 µM

SMILES | TGI
CCOC(=O)c1c(N2CCCC2)[nH]c(=O)c(C(c2ccc(OC)cc2)c2c(O)c(C(=O)OCC)c(N3CCCC3)[nH]c2=O)c1O | > 100 µM
CCOC1C=CC(=O)C(CO)O1 (configuration not stated) | 30.4 µM
CN(C)C(=O)C(F)(F)C(c1ccc(F)cc1)C1C(=O)N(C)C(=O)N(C)C1=O (configuration not stated) | > 100 µM
Cc1c2cccc-2c2cc(O)c3ccccc3c2n1-c1ccc(N(C)C)cc1 | 32.6 µM
O=c1[nH]c(NCc2ccncc2)nc2nc[nH]c12 | > 100 µM
O=CC(I)=C(c1ccccc1)c1ccccc1 | 32.4 µM
c1c[nH]c(-c2cccc3nsnc23)c1 | > 100 µM
Cn1c2ccccc2c2ccc3c(c21)C(=O)c1ccc2c4ccccc4n(C)c2c1C3=O | > 100 µM
Cc1ccc(-c2cc(-c3ccco3)c(C#N)c(=S)[nH]2)cc1 | > 100 µM
NS(=O)(=O)c1nnc(NC(=O)N(c2ccccc2)c2ccccc2)s1 | > 100 µM
COCOc1ccc(C(=O)Oc2cccc3c2OC(C)(C)O3)c(OCOC)c1 | > 100 µM
CN(C)CCN(c1ccccn1)c1ccccn1 | > 100 µM
O=C(O)c1nc2ccc(C(F)(F)F)cc2[nH]c1=O | > 100 µM
CN(CCN1CCCC1)C1CCc2cc(Cl)c(Cl)cc2C1 (configuration not stated) | 17.2 µM
COC(=O)CNC(=O)C(CSC(=O)OCC1c2ccccc2-c2ccccc21)NC(=O)CCC(NC(=O)OCC1c2ccccc2-c2ccccc21)C(=O)OC (configuration not stated) | 78.9 µM
CC(C)NC(=O)OCc1c(COC(=O)NC(C)C)n(C)c2c1ccc1sccc12 | 37.9 µM
O=C(CC(NC(=O)C(F)(F)F)C(=O)O)OCc1ccccc1 (configuration not stated) | > 100 µM

These molecules were tested on RXF 393 renal (assay: NCI-60 cell line screen, 48 h).

SMILES | TGI
COc1ccc2ccc3oc(=O)c(C)cc3c2c1 | > 100 µM
CCCCCCN(CCCCCC)C(=S)N/N=C(\C)c1ccccn1 | 2.78 µM
O=c1c(F)cn2c(=O)n1CCCCCCCn1c(=O)c(F)cn(c1=O)CCCCCCC2 | > 100 µM
Cc1nnc2n(c1=O)CCCN2C | > 100 µM
O=C(ON=C1c2ccccc2C(Br)C(Br)c2ccccc21)c1ccccc1 (configuration not stated) | 28.4 µM
Nc1ncnc2c1nnn2C1C=CC(CP(=O)(O)O)C1 (configuration not stated) | > 100 µM
CC(=O)c1ccc(Oc2c3ccccc3nc3ccccc23)cc1 | 21.3 µM
Cn1c2ccccc2n2c3ncccc3c(=O)c(C#N)c12 | > 56.4 µM
S=C(Cc1ccc2c(c1)Sc1ccccc1O2)N1CCOCC1 | > 100 µM
C[n+]1cc2cc(O)c(O)cc2c2ccc3cc(O)c(O)cc3c21 | 9.34 µM
COc1ccc(N=Nc2c(-c3c(OC)cc4occc4c3OC)[nH]c(=O)c(C#N)c2C)cc1 | > 100 µM
O=C(/C=C/c1ccc(Cl)cc1)Oc1ccc(C=C2CCC/C(=C\c3ccc(OC(=O)/C=C/c4ccc(Cl)cc4)cc3)C2=O)cc1 | > 100 µM
COc1ccc2nc(NC(=O)/C(C#N)=C/c3ccccc3)sc2c1 | > 100 µM
Cc1c(C)n(-c2ccccc2)c2nc(S(C)=O)nc(S(C)=O)c12 (configuration not stated) | 14.4 µM
CC1(C)CC(=O)C2=C(C1)C(c1ccccc1Cl)C1C(=O)CC(C)(C)CC1(O)O2 (configuration not stated) | > 100 µM
Cn1nc(-c2ccc(S(=O)(=O)/N=C(\NN)Nc3ccc(Cl)cc3)s2)cc1C(F)(F)F | 23.6 µM
Cc1ccc2c(c1C)C(=O)C1(Cc3cc4c(cc3C1=O)CCC4)C2 (configuration not stated) | > 100 µM
CCCCI(O)OS(=O)(=O)c1ccc(C)cc1 | > 100 µM
